Converted amounts (≈) assume the structure as drawn.
test: Toxicity against Artemia salina after 24 hrs; assay type: organism-based; conditions: in vivo

Row | SMILES | LC50 at 24 h
1 | CC(C)C/C=C/[C@@H](C)[C@H]1CC[C@H]2[C@@H]3[C@@H](O)C=C4C[C@@H](O)CC[C@]4(CO)[C@H]3CC[C@]12C | 30.7 µg/mL (≈ 73.7 µM)
2 | CC(C)CCC[C@@H](C)[C@H]1CC[C@H]2[C@@H]3[C@@H](O)C=C4C[C@@H](O)CC[C@]4(CO)[C@@]3(O)CC[C@]12C | 7.2 µg/mL (≈ 16.6 µM)
3 | CC(C)CCC[C@](C)(O)[C@H]1C(=O)C[C@H]2[C@@H]3CCC4=CC(=O)C=C[C@]4(C)[C@H]3CC[C@@]21CO | 139 µg/mL (≈ 325 µM)
4 | CC(C)CCC[C@@H](C)[C@H]1CC[C@H]2[C@@H]3[C@@H](O)C=C4C[C@@H](O)CC[C@]4(CO)[C@H]3CC[C@]12C | 55.6 µg/mL (≈ 133 µM)

From ChEMBL document CHEMBL1159011, “Four new bioactive polyhydroxylated sterols from the black coral Antipathes subpinnata” (J Nat Prod, 1992)
